According to publication PMC12316034, “Tetrahydromagnolol induces autophagic cell death by targeting the m^6A reader protein YTHDF2 and enhances the efficacy of anti-PD-1 immunotherapy in pancreatic cancer cells” (Theranostics, 2025):

Target: T1, YTHDF2 (YTH N6-methyladenosine RNA binding protein F2) (Homo sapiens, UniProt Q9Y5A9)
T1 construct: recombinant protein of YTHDF2 (NCBI: 51441)
T1 sequence (Q9Y5A9 2-579): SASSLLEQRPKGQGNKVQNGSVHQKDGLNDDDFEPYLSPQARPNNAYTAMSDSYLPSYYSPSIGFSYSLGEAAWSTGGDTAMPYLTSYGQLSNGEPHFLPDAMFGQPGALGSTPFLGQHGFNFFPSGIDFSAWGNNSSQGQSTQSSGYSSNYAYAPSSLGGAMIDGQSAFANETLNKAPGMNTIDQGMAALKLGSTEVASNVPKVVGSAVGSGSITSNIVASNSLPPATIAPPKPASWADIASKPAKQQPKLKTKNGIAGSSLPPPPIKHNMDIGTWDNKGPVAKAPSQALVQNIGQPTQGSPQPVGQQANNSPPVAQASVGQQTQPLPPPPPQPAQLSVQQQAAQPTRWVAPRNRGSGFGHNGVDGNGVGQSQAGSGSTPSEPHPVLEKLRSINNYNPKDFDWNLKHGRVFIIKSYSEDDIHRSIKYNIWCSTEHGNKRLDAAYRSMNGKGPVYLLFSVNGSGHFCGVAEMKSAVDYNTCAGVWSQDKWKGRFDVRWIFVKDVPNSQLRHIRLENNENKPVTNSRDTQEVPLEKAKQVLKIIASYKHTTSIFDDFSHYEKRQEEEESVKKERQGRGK
Assay: SPR on immobilised recombinant YTHDF2; also ITC, THM-bead pull-down, CETSA, LC-MS/MS

In the case of `CCCc1ccc(O)c(-c2cc(CCC)ccc2O)c1` [Tetrahydromagnolol], the Kd is reported as 22 µM.
